Source: patent US20190076456A1, “COMPOSITIONS AND METHODS FOR LIVER DISEASES” (priority 2017, published 2019)
Like-named read-outs stand apart in the source and are kept apart here.

Key:
[1] = cited from earlier work
alcohol hangover = experiment: Nasal spray administration to a human subject with alcohol hangover; type: in vivo; settings: 50 mg NAD+ per administration, three times in a day
Description: A subject, who is […] and suffers from alcohol hangover was administered by nasal spray a composition of invention (with a dosage of 50 mg NAD+ per administration) three times in a day.

Structure (SMILES): NC(=O)c1ccc[n+]([C@@H]2O[C@H](COP(=O)([O-])OP(=O)(O)OC[C@H]3O[C@@H](n4cnc5c(N)ncnc54)[C@H](O)[C@@H]3O)[C@@H](O)[C@H]2O)c1 [NAD+, nicotinamide adenine dinucleotide]
- stability of solution ([1]; 4° C. and neutral pH): stable for about a week
- stability of solution ([1]; in acids or alkalis): decompose rapidly
- symptoms of alcohol hangover (alcohol hangover): Significant improvement
